#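 Protocol summary: plate cells (96-well), add compound at 5 concentrations, incubate 48 h, interpolate endpoints linearly. Here, GI50 denotes the concentration required for 50% inhibition of growth.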 Active and inactive are the calls of the source. Cut-off read from the data, not from the text of the source: active = GI50 up to about 1.1 µM and inactive = higher.
# How the values were obtained:
# Assay in all cases: NCI-60 cell line screen, 48 h
# [1] = tested on: 786-0
# [2] = tested on: A498
# [3] = tested on: A549
# [4] = tested on: CAKI-1
# [5] = tested on: CCRF-CEM
# [6] = tested on: COLO 205
# [7] = tested on: EKVX
# [8] = tested on: HCC 2998
# [9] = tested on: HOP-92
# [10] = tested on: KM12
# [11] = tested on: MOLT-4
# [12] = tested on: OVCAR-4
# [13] = tested on: OVCAR-5
# [14] = tested on: SF-268
# [15] = tested on: SF-295
# [16] = tested on: SK-MEL-28
# [17] = tested on: SK-OV-3
# [18] = tested on: UACC-257
# [19] = tested on: UACC-62
# [20] = tested on: MDA-N
SMILES,GI50 [1],GI50 [2],GI50 [3],GI50 [4],GI50 [5],GI50 [6],GI50 [7],GI50 [8],GI50 [9],GI50 [10],GI50 [11],GI50 [12],GI50 [13],GI50 [14],GI50 [15],GI50 [16],GI50 [17],GI50 [18],GI50 [19],GI50 [20]
Cc1ccc([N+](=O)[O-])cc1NC(=O)C(=O)Cc1cc(=O)oc2cc(O)ccc12,> 100 µM (inactive),> 100 µM (inactive),> 100 µM (inactive),> 100 µM (inactive),39.1 µM (inactive),42.8 µM (inactive),> 100 µM (inactive),> 100 µM (inactive),> 100 µM (inactive),> 100 µM (inactive),> 100 µM (inactive),> 100 µM (inactive),> 100 µM (inactive),32 µM (inactive),> 100 µM (inactive),33.5 µM (inactive),> 100 µM (inactive),> 100 µM (inactive),> 100 µM (inactive),
NC(=S)Nc1nc(=S)[nH]c2c1SC1=N/C(=C\c3ccco3)C(=O)N12,> 100 µM (inactive),> 100 µM (inactive),> 100 µM (inactive),> 82.4 µM (inactive),38.2 µM (inactive),> 100 µM (inactive),59 µM (inactive),,> 100 µM (inactive),98.6 µM (inactive),44.1 µM (inactive),61.8 µM (inactive),> 100 µM (inactive),> 100 µM (inactive),> 100 µM (inactive),> 100 µM (inactive),> 100 µM (inactive),> 100 µM (inactive),> 100 µM (inactive),> 100 µM (inactive)
Cc1ccc(/C=N/n2c(=O)[nH]c3ccccc3c2=O)cc1,> 100 µM (inactive),> 100 µM (inactive),> 100 µM (inactive),> 100 µM (inactive),> 100 µM (inactive),> 100 µM (inactive),> 100 µM (inactive),,> 100 µM (inactive),> 100 µM (inactive),> 100 µM (inactive),,> 100 µM (inactive),> 100 µM (inactive),> 100 µM (inactive),> 100 µM (inactive),> 100 µM (inactive),> 100 µM (inactive),> 100 µM (inactive),> 100 µM (inactive)
Oc1ccc2ccccc2c1/N=N/c1cc(Cl)ccc1Cl,9.14 µM (inactive),,17 µM (inactive),34.4 µM (inactive),17.9 µM (inactive),23.3 µM (inactive),9.06 µM (inactive),,22.3 µM (inactive),17.7 µM (inactive),15.4 µM (inactive),13.9 µM (inactive),11.7 µM (inactive),17.1 µM (inactive),9.73 µM (inactive),> 50 µM (inactive),10.8 µM (inactive),> 50 µM (inactive),15.9 µM (inactive),27.5 µM (inactive)
NC12c3c4cccc3Oc3cccc(c31)Oc1cccc(c12)O4,> 50 µM (inactive),> 50 µM (inactive),> 50 µM (inactive),> 50 µM (inactive),> 50 µM (inactive),> 50 µM (inactive),> 50 µM (inactive),,> 50 µM (inactive),> 50 µM (inactive),> 50 µM (inactive),> 50 µM (inactive),> 50 µM (inactive),> 50 µM (inactive),> 50 µM (inactive),> 50 µM (inactive),> 50 µM (inactive),> 50 µM (inactive),> 50 µM (inactive),> 50 µM (inactive)
CC1=C(CCC(C)CO)O[C@H]2C[C@H]3[C@@H]4CC[C@H]5C[C@@H](O)CC[C@]5(C)[C@H]4CC(=O)[C@]3(C)[C@@H]12 (stereo not given in full),20.7 µM (inactive),20.3 µM (inactive),13.8 µM (inactive),27.7 µM (inactive),4.89 µM (inactive),8.97 µM (inactive),29.9 µM (inactive),,23.9 µM (inactive),11.3 µM (inactive),3.61 µM (inactive),25.2 µM (inactive),27.4 µM (inactive),19.1 µM (inactive),1.27 µM (inactive),22.1 µM (inactive),0.442 µM (active),14.8 µM (inactive),6.17 µM (inactive),15.6 µM (inactive)
CCC12C=CCN3CC[C@]4(C(=C(C(=O)OC)[C@@H]1Nc1ncnc5c1ncn5C1OC(COC(C)=O)C(OC(C)=O)C1OC(C)=O)Nc1ccccc14)C32 (stereo not given in full),1.94 µM (inactive),2.04 µM (inactive),3.53 µM (inactive),3.42 µM (inactive),2.45 µM (inactive),1.88 µM (inactive),4.78 µM (inactive),1.82 µM (inactive),2.39 µM (inactive),2.42 µM (inactive),3.3 µM (inactive),2.42 µM (inactive),3.47 µM (inactive),2.05 µM (inactive),3.05 µM (inactive),3.52 µM (inactive),2.36 µM (inactive),5.3 µM (inactive),3.11 µM (inactive),
COc1ccc(-c2nc(O)c3ccccc3n2)cc1,48.3 µM (inactive),47 µM (inactive),> 100 µM (inactive),76.6 µM (inactive),> 100 µM (inactive),> 100 µM (inactive),> 100 µM (inactive),,> 100 µM (inactive),> 100 µM (inactive),> 100 µM (inactive),26.9 µM (inactive),> 100 µM (inactive),> 100 µM (inactive),> 100 µM (inactive),43.6 µM (inactive),> 100 µM (inactive),> 100 µM (inactive),71.1 µM (inactive),> 100 µM (inactive)
